row,SMILES,melting point [°C]
1,CCCCN(CCCC)CCCOc1ccc(-c2cn3cccc(C)c3n2)cc1C,63 to 66
2,CC(=O)Nc1ccc(S(=O)(=O)Nc2nnc(S(N)(=O)=O)s2)cc1,280 to 281
3,O=C1NC[C@@H](c2ccccc2)O1,86 to 87
4,CC(=O)NNC(=N)c1ncc([N+](=O)[O-])n1C,294
5,CNC(=S)C1=CC(C)(C(F)(F)F)Oc2ccc([N+](=O)[O-])cc21 (centres undefined),158 to 160
6,COc1ccc(-c2ccc(Cl)c(C(=O)NCC34CC5CC(CC(C5)C3)C4)c2)c(C(=O)O)c1,219 to 221
7,COc1ccc2nc3c(cc2c1)c(C#N)nn3C,190 to 191
8,COC(=S)C(C)=CNc1ccc(OC)c(Cl)c1,110 to 112
9,COCCCn1nnnc1-c1cc(-c2cccc(C(=O)O)c2)c(OCc2ccccc2)cc1OCc1ccccc1,59 to 63
10,O=C(SC(SC(=O)c1ccccc1)C(=O)O)c1ccccc1,82 to 83
11,COc1cc2c(c(OC)c1OC)CC(N1CCC(n3c(=O)[nH]c4ccccc43)CC1)C2=O (centres undefined),197 to 199
12,COc1ccc(C(=C/C=C/C(=O)NCCCc2ccncc2)c2ccc(OC)cc2)cc1,90 to 92
13,O=C1C2CCCCN2C(=O)N1c1c(F)cc(Cl)c2nc(Cl)sc12 (centres undefined),168 to 170
14,CC(C)OC(=O)Cc1ccc2c(c1)C(=O)c1ccccc1CO2,67 to 68.5
15,Cn1ncc2c1CCCc1c-2cnn1C,191 to 195
16,O=S1(=O)CS(=O)(=O)OCO1,146

# Now from value to molecule:
row,melting point [°C],SMILES
1,231,O=c1ccc(-c2ccc(Cc3nn[nH]n3)cc2)cn1Cc1ccc(Cl)cc1
2,308,N#Cc1c(N2CCN(C(=O)c3cccs3)CC2)c2cscc2n(CC(=O)c2ccccc2)c1=O
3,160 to 161,CSc1ccc(Cc2sc(NC(C)=O)nc2CCc2ccc(NC(=N)N)cc2)cc1
4,153 to 155,NS(=O)(=O)c1ccc(-n2nc(C(F)(F)F)cc2-c2ccc(Cl)cc2Cl)cc1
5,238 to 240,O=c1ccc(-c2c(-c3ccccc3)nn3ccccc23)nn1C1CCCCC1=NO (centres undefined)
6,194 to 196,O=C(O)COc1cccc2c1CCc1sc(SC(c3ccccc3F)c3ccccc3F)nc1-2
7,177 to 178,NS(=O)(=O)c1ccc(N2CCN(CCCC3OCCc4ccccc43)CC2)cc1 (racemic)
8,108 to 109,OC[C@H]1C[C@@H]2c3ccccc3Oc3ccc(F)cc3[C@H]2N1
9,130,Cc1cn(C(C)(C)C(=O)N(C)C)nc1-c1cc(Cl)ccc1Cl
10,145 to 147,COc1ccccc1SCC(O)CN(C)Cc1cc2c(=O)c(C(=O)NCc3ccc(Cl)cc3)cn(C)c2o1 (centres undefined)
11,257,Clc1ccc2c(c1)Cc1ccc(-c3nnn[nH]3)cc1S2
12,165 to 167,O=C1CCC(N2C(=O)c3cccc(OCc4ccc(CN5CCc6ncccc6C5)cc4)c3C2=O)C(=O)N1 (centres undefined)
13,187 to 188,COc1ccc2c(c1)c(C(C)C(=O)O)cc(=O)n2Cc1ccccc1Cl (centres undefined)
14,> 250,Fc1ccc(-c2ccc3[nH]c4c(ccc5cc[nH]c54)c3c2)c(F)c1
15,57 to 63,CCc1nc2cc(F)ccc2c(=O)n1NC(=O)C(C)c1ccccc1 (centres undefined)
16,271 to 272,CC(C)CN1C(=O)[C@@H](CC(N)=O)O[C@H](c2ccccc2Cl)c2cc(Cl)ccc21 (relative stereo)
17,160 to 162,CN(C)c1ccccc1CSC1=NC(=O)NC1(C)C
18,178 to 180,CCOC(=O)c1nc(NC(C)=O)sc1Cc1ccccc1
19,39.8 to 41,COc1nc(C)c(N)cc1C
20,178 to 180,CC1=NN(c2ccccc2)C(=O)C1C=O (centres undefined)
21,159 to 160,CC1(C)CCC(C)(C)c2cc(C#CCc3ccc(C(=O)O)cc3)ccc21
22,228,CCCc1nc2c(N)nc3cc(OCc4ccccc4C)ccc3c2n1CC(C)C
23,35 to 36,CCCc1ccc(Br)nn1

# From a melting point compilation (Tetko et al.; mined from patent text by program, amines drawn as free bases though some values may be those of a salt)
